Measurements as given in ChEMBL document CHEMBL1201862, “PubChem BioAssay data set” (2004).
Calls of active or inactive are those of the source.

Legend:
Cytochrome P450 3A4 = Cytochrome P450 3A4 (Homo sapiens, UniProt P08684); conditions: Potency;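 also: confirmatory qHTS run detecting inhibitors and substrates of CYP3A4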
Protein RecA = target: T1, Protein RecA (Mycobacterium tuberculosis, UniProt P9WHJ3); experiment: Fluorescence Cell-Free Homogeneous Dose Retest to Identify Inhibitors of RecA-Intein Splicing Activity. [Related pubchem assays (depositor defined):AID2097, AID2223, AID489010, AID492950]; type: functional
T1 sequence (P9WHJ3 whole entry): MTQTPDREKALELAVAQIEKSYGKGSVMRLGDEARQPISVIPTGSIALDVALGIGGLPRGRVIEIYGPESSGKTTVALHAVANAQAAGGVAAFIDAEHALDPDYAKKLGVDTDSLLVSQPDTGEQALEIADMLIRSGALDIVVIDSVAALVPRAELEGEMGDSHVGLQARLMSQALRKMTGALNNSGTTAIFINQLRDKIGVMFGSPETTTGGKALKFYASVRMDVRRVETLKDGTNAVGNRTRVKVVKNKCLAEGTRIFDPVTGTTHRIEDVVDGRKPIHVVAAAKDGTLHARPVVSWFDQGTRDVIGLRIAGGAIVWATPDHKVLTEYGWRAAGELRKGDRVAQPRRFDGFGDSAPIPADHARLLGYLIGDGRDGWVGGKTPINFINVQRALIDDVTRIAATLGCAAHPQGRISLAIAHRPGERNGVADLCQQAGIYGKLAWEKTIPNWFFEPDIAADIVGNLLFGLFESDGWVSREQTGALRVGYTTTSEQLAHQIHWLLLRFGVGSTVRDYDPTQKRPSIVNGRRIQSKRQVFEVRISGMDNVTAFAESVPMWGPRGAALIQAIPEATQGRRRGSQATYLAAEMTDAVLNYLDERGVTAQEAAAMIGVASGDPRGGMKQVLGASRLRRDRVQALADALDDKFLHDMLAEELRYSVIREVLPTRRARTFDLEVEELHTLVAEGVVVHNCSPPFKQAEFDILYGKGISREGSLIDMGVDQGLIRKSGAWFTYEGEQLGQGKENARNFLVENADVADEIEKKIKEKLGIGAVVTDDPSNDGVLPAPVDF

[1] = target: T2, Replicative DNA helicase DnaB (Mycobacterium tuberculosis, UniProt P9WMR3); experiment: DnaB intein splicing inhibitors, dose response, biochemical, cell-free fluorescence (AID 449749); type: functional
T2 sequence (P9WMR3 whole entry): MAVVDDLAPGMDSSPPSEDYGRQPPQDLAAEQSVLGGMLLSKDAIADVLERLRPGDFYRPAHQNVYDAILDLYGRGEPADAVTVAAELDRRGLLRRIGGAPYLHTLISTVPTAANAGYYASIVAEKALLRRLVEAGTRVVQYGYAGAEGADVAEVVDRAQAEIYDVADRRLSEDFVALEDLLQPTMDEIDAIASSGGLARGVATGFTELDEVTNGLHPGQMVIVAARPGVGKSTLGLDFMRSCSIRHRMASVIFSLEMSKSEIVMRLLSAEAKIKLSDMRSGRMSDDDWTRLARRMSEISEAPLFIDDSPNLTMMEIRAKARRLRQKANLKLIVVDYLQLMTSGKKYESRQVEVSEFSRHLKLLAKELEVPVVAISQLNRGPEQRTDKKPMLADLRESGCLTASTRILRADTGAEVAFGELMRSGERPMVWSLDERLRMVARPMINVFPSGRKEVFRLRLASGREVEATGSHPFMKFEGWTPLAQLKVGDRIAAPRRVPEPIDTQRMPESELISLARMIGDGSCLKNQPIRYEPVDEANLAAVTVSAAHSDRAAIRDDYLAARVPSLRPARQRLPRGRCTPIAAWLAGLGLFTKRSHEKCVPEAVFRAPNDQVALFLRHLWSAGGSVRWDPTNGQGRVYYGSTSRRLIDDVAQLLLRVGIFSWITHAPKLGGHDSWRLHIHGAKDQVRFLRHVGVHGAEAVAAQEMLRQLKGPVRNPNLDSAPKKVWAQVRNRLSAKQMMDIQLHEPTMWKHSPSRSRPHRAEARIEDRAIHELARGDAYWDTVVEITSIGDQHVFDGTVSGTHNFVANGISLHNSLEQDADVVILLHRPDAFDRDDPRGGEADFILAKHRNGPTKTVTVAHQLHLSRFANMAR

Fatty acid synthase [2] = target: T3, Fatty acid synthase (Homo sapiens, UniProt P49327); experiment: inhibition of human FAS-TE enzyme activity – biochemical, kinetic fluorescence intensity, dose response (AID 624326); type: functional;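 also: rate of fluorescence rise from hydrolysis of a fluorogenic O-methyl fluorescein ester substrate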
Fatty acid synthase [3] = target: T3, Fatty acid synthase; experiment: inhibition of human FAS-TE enzyme activity – biochemical, endpoint fluorescence intensity, uHTS hits, dose response (AID 624327); type: functional;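 also: fluorescence from hydrolysis of an O-methyl fluorescein acyl ester substrate by the enzyme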
H9c2 = experiment: cells; type: functional, cell-based; conditions: Rattus norvegicus, H9c2, Myocardium;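 also: confirmatory concentration-response retest of ultra-high-throughput screening hits for modulation of myocardial damage; cell death induced by hydrogen peroxide oxidative stress; compound pretreatment for 60 min then peroxide exposure for 2 h; potency is for protecting the cells against peroxide damage rather than for killing them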
[4] = microbe, parasite or virus in culture; type: functional; conditions: Mycobacterium tuberculosis
[5] = NIH-3T3 fibroblast cytotoxicity, dose response, cytotoxicity control, cell-based, fluorescence, Alamar Blue, secondary assay (AID 2327); type: functional;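 also: NIH-3T3 mouse fibroblasts cultured with fluconazole at 8 µg/mL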
[6] = target: T4, Rac GTPase-activating protein 1 (Homo sapiens, UniProt Q9H0H5); experiment: blockers of MgcRacGAP-driven Rac1 GTP hydrolysis – biochemical, ADP Hunter fluorescence, primary and confirmatory, confirmation (AID 624330); type: functional
T4 sequence (Q9H0H5 whole entry): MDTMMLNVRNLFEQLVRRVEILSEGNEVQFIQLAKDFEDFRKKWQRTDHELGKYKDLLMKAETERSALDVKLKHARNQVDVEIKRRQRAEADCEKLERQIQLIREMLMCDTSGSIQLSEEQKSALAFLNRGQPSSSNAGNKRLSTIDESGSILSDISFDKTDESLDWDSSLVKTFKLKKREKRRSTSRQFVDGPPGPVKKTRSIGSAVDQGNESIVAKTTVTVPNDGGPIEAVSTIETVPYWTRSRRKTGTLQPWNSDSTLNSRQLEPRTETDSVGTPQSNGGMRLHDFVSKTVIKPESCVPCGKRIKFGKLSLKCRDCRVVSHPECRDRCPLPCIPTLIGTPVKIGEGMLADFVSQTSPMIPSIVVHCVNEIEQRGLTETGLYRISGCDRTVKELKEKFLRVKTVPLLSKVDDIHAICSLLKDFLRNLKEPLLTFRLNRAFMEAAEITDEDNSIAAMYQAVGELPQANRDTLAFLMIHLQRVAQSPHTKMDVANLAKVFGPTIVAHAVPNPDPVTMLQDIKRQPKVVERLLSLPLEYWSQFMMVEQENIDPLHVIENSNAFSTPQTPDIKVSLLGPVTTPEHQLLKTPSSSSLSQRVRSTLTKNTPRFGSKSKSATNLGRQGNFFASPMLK

[7] = viability of uninfected HEp-2 cells – cell-based, HTS, cytotoxicity control for RSV inhibitor project, dose response (AID 2410); type: functional; conditions: human respiratory syncytial virus
[8] = Luminescence Cell-Based Dose Retest to Confirm Inhibitors of Cancer Stem Cells. [Related pubchem assays (depositor defined):AID2717, AID2721]; type: functional; conditions: Homo sapiens

Sequence of Cytochrome P450 3A4 (P08684 whole entry): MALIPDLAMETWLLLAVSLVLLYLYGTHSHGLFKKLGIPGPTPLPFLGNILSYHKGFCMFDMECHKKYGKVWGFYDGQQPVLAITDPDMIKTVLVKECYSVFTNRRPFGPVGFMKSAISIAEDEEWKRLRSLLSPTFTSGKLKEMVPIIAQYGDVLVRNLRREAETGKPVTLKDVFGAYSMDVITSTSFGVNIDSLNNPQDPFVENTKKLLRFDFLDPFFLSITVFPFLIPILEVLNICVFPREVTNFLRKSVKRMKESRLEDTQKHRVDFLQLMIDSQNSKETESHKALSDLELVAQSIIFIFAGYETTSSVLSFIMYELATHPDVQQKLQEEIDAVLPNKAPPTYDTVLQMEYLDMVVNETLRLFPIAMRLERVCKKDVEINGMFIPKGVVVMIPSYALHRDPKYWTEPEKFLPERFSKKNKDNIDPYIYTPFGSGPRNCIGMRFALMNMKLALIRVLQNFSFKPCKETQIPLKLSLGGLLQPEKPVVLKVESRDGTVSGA
T3 sequence (P49327 whole entry): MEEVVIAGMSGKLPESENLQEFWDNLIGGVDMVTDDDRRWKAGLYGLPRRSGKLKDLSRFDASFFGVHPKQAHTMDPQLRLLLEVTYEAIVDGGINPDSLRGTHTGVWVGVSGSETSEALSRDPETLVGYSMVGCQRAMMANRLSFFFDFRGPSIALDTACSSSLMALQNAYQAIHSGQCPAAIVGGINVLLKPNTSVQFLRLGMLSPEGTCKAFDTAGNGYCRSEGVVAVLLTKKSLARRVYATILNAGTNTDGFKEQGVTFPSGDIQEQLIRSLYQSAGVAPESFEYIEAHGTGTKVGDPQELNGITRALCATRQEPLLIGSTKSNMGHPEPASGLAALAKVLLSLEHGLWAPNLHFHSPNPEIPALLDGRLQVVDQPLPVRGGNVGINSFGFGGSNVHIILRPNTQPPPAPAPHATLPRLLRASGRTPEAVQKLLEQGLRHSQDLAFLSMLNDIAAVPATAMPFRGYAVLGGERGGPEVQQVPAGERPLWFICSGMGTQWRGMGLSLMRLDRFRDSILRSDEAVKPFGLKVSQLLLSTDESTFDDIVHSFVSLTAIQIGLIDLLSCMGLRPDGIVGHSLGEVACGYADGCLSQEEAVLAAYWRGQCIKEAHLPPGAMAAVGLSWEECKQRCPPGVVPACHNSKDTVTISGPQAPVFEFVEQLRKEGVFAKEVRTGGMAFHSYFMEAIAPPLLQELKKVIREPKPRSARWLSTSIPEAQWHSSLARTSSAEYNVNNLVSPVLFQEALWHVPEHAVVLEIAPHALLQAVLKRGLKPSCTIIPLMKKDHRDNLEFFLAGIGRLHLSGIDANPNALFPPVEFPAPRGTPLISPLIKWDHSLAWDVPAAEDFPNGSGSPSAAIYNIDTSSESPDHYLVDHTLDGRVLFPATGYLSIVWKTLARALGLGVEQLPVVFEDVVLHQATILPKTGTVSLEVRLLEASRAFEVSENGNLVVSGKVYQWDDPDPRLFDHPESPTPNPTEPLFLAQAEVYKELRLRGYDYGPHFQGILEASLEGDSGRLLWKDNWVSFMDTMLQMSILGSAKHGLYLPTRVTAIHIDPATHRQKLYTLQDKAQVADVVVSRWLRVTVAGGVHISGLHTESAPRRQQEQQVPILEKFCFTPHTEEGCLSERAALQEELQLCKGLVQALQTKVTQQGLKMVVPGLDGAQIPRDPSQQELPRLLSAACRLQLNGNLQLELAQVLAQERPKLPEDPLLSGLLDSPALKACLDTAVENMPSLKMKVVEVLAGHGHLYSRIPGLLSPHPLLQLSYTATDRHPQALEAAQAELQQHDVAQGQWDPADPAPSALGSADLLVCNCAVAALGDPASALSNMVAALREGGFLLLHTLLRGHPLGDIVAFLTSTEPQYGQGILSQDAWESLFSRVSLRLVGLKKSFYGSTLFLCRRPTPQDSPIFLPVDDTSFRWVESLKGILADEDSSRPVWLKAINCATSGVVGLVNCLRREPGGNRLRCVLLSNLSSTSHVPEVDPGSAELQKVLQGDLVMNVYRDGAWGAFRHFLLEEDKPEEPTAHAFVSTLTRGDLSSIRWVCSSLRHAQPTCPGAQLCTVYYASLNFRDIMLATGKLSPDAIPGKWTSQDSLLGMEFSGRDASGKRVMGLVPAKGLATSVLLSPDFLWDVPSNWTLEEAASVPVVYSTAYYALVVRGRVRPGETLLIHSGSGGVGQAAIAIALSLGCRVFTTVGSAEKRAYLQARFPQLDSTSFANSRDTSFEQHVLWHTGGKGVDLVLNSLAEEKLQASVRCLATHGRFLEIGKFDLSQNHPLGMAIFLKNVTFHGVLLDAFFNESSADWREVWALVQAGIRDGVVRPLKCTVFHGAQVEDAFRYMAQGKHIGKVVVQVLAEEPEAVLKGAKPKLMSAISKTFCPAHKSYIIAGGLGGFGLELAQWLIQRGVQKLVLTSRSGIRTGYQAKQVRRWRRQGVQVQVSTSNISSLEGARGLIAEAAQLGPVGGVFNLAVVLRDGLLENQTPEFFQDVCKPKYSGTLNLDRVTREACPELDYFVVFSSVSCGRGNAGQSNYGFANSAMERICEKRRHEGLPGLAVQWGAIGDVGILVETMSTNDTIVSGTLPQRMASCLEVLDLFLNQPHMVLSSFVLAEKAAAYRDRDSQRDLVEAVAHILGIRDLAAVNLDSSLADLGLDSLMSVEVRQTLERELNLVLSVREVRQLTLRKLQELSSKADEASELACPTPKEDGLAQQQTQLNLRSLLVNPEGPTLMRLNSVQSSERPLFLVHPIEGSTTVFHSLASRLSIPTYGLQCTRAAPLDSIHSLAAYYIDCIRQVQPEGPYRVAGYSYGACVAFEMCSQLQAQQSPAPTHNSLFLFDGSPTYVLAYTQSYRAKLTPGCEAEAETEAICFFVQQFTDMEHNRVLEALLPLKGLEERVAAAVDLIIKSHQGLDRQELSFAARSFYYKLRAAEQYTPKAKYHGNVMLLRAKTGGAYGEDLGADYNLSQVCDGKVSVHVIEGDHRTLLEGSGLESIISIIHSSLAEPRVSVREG

SMILES: N#Cc1ccc(C23CC4(C2)[C@H](CN(CC2CCCCC2)[C@@H]4c2ccccc2)C3c2ccc(C(F)(F)F)cc2)cc1 (stereo partly drawn)
- AC50 (Cytochrome P450 3A4): 15.8 µM (inconclusive)

SMILES: O=[N+]([O-])c1ccc(N2CCOCC2)c2ccncc12
- EC50 (Protein RecA): 12.2 µM (active)
- AC50 [1]: > 380 µM (inactive)

SMILES: O=C(COC(=O)c1ccc(Cl)c([N+](=O)[O-])c1)NC1CCCC1
- IC50 (Fatty acid synthase [2]): 3.41 µM (active)
- IC50 (Fatty acid synthase [3]): 3.12 µM (active)

SMILES: CC(=O)Nc1cc(-c2ccc(C(=O)N3CCOCC3)cc2)cn2c(-c3ccc(C(C)=O)cc3)cnc12
- IC50 (H9c2): > 79 µM (inactive)

SMILES: COC(=O)[C@@H]1C[C@@]2(O)[C@H](O)[C@H](O)[C@H](O)C[C@H]2N1Cc1ccc(N2CCN(C)CC2)cc1
- AC50 (Cytochrome P450 3A4): 31.6 µM (inconclusive)

SMILES: O=C(CCCCCCCCCCCCC1CCCC1)Nc1ccc(S(=O)(=O)c2ccc(NC(=O)CCCCCCCCCCCCC3CCCC3)cc2)cc1 [CHAULMOSULFONE]
- AC50 (Cytochrome P450 3A4): 31.6 µM (inconclusive)

SMILES: COC(=O)[C@@H]1C[C@H]2CC[C@H](O)C[C@H]2N1Cc1ccc(-c2ccccc2)cc1
- AC50 (Cytochrome P450 3A4): 12.6 µM (inconclusive)

SMILES: COc1ccc2nc(NN=C3C(=O)CC(C)(C)CC3=O)sc2c1
- CC50 [4]: 26.2 µM (active)

SMILES: Cc1nc(N2CCOCC2)c2nc(-c3ccccc3)n(CC(C)(C)CN(C)C)c2n1
- AC50 (Cytochrome P450 3A4): 10 µM (inconclusive)

SMILES: COc1ccc(Cn2c(C)nc3ccc([N+](=O)[O-])cc3c2=O)cc1
- IC50 (Fatty acid synthase [2]): 3.61 µM (active)
- IC50 (Fatty acid synthase [3]): 4.97 µM (active)

SMILES: CCN(CC)CCCn1c(-c2ccccc2)nc2c(NCc3ccccc3)nc(C)nc21
- AC50 (Cytochrome P450 3A4): 10 µM (inconclusive)

SMILES: OC(COc1ccc2c(c1)OCO2)CN1CCCC1 (stereo not drawn)
- EC50 [5]: 53.2 µM (active)

SMILES: O=C(COC(=O)Cc1nnc(O)c2ccccc12)NNC(=O)c1ccc(Br)cc1
- IC50 (H9c2): > 79 µM (inactive)

SMILES: NC(=O)c1ccc(NC(=O)COc2cccc3c2CCNC3=O)cc1
- IC50 (H9c2): > 79 µM (inactive)

SMILES: COC(=O)c1ccc(CNC(=O)/C=C/c2cc([N+](=O)[O-])ccc2OC(F)F)cc1
- IC50 (Fatty acid synthase [2]): 4.91 µM (active)
- IC50 (Fatty acid synthase [3]): 3.27 µM (active)

SMILES: Cc1ccc(OCC(=O)NCc2nnc(O)c3ccccc23)cc1
- IC50 (H9c2): > 79 µM (inactive)

SMILES: CN(C(=O)COC(=O)c1cc([N+](=O)[O-])ccc1N1CCOCC1)C1CCCCC1
- IC50 (Fatty acid synthase [2]): 0.41 µM (active)
- IC50 (Fatty acid synthase [3]): 0.383 µM (active)

SMILES: CC(Nc1c[nH]c(=O)[nH]c1=O)c1ccccc1 (stereo not drawn)
- EC50 (Protein RecA): 15.5 µM (active)
- AC50 [1]: 23.9 µM (active)

SMILES: c1ccc(Nc2ccc3ccccc3c2)cc1
- AC50 (Cytochrome P450 3A4): 25.1 µM (inconclusive)

SMILES: N#C/C(=C\c1ccc(-c2cccc([N+](=O)[O-])c2)o1)C(=O)NCCN1CCOCC1
- IC50 (H9c2): > 79 µM (inactive)

SMILES: Cc1csc(NC(=O)CCNC(=O)c2ccc([N+](=O)[O-])cc2)n1
- IC50 (Fatty acid synthase [2]): 7.66 µM (active)
- IC50 (Fatty acid synthase [3]): 6.85 µM (active)

SMILES: COc1ccc(C2NC(c3ccc(OC)cc3OC)C(C)C(=O)C2C)c(OC)c1 (stereo not drawn)
- EC50 (Protein RecA): > 380 µM (inactive)
- IC50 [6]: 116 µM (active)
- AC50 [1]: > 380 µM (inactive)

SMILES: CCCc1n[nH]c2c1C(c1ccc(OC(=O)N3CCOCC3)cc1)C(C#N)=C(N)O2 (stereo not drawn)
- EC50 (Protein RecA): 11.8 µM (active)
- AC50 [1]: 23.5 µM (active)

SMILES: c1ccc(CN2CCC3(CCCc4ccccc43)CC2)cc1
- CC50 [4]: > 40 µM (active)

SMILES: COc1ccc(C(=O)Nc2cccc(/C(C)=N/NC(=O)c3ccc([N+](=O)[O-])c(C)c3)c2)cc1OC
- IC50 (H9c2): > 79 µM (inactive)

SMILES: CC(=O)O[C@@]1(C(C)=O)CCC2C3CC(C)C4=CC(=O)CC[C@@]4(C)C3CC[C@]21C (stereo partly drawn)
- AC50 (Cytochrome P450 3A4): 39.8 µM (inconclusive)

SMILES: CCC1=C(OC(=O)N(CC)CC)N2C(=O)O/C(=N\CCc3c[nH]c4ccccc34)[C@]2(Cc2ccccc2)[C@H]2C1=CC[C@H]1C(=O)NC(=O)[C@H]12
- CC50 [4]: > 40 µM (active)

SMILES: CCN(CC)CCn1c2c(c(SCC(=O)Nc3cccc(C(C)=O)c3)nc1=O)CCCC2
- IC50 (H9c2): > 79 µM (inactive)

SMILES: COc1ccc(/C=C/C(=O)c2ccccc2)cc1COc1ccc(F)cc1
- EC50 (Protein RecA): 37.2 µM (active)
- AC50 [1]: 17.1 µM (active)

SMILES: COc1ccc2[nH]cc(CC(N)C(=O)O)c2c1 (stereo not drawn)
- AC50 (Cytochrome P450 3A4): 31.6 µM (inconclusive)

SMILES: O=C(CSc1nc(O)c2ccccc2n1)N1CCCCCC1
- IC50 (H9c2): 33 µM (inactive)

SMILES: COc1ccc(OC2C(O)COC2/C=C/C#Cc2ccccc2)cc1 (stereo not drawn)
- AC50 (Cytochrome P450 3A4): 3.98 µM (inconclusive)

SMILES: Cc1ccccc1C(=O)Nc1ccc(-c2nc3cc(C(=O)c4ccccc4)ccc3[nH]2)cc1
- CC50 [7]: 6.02 µM (active)
- CC50 [4]: > 40 µM (active)
- AC50 [8]: 1.36 µM (active)

SMILES: COc1cc(-n2c(=O)c3ccccc3n(Cc3cc(=O)n4ccccc4n3)c2=O)cc(OC)c1OC
- IC50 (H9c2): 18.7 µM (active)

SMILES: CC(=O)OCC(=O)[C@@]1(O)CCC2C3CC(C)C4=CC(=O)C=CC4(C)C3C(O)CC21C (stereo partly drawn)
- AC50 (Cytochrome P450 3A4): 12.6 µM (inconclusive)

SMILES: O=C(CNC(=O)c1[nH]cnc1C(=O)NCc1ccccc1)OCc1ccccc1
- IC50 (H9c2): 40.4 µM (inactive)

SMILES: N#C/C(=C\c1c(F)cccc1Cl)c1nn(-c2ccccc2)c(-n2cccc2)c1C#N
- EC50 (Protein RecA): 1.34 µM (inconclusive)
- AC50 [1]: 28.9 µM (active)
- CC50 [7]: > 50 µM (active)
- AC50 [8]: 0.966 µM (active)
